These are literature values, as cited in patent publication US20020103240A1, “Process for resolution of 2-amino-6-propylamino-4,5,6,7-tetrahydrobenzthiazole and compounds therefor” (priority 2000, published 2002).

The conditions of the data set: (S) isomer compared with (R) enantiomer; no test described.

In the case of `CCCN[C@H]1CCc2nc(N)sc2C1` [pramipexole, (S)-2-amino-6-propylamino-4,5,6,7-tetrahydrobenzothiazole], the “dopaminergic activity of the (S) isomer relative to the (R) enantiomer” value is “twice as high”.
